Columns and labels:
Assay type in all cases: biochemical
RSK1 = RSK1 (Homo sapiens, UniProt Q15418); assay: Kinase profiling RSK1; conditions: for residual kinase activity, RSK1: 100 micromolar inhibitor concentration, 100 is no change
Source text: (§1) Any value less that 25 is considered to be highly significant inhibition.

PKA = PKA (Homo sapiens, UniProt P17612); assay: Kinase profiling PKA; conditions: for residual kinase activity, PKA: 100 micromolar inhibitor concentration, 100 is no change
Source text: as §1

PKCa = PKCa (Homo sapiens, UniProt P17252); assay: Kinase profiling PKCa; conditions: for residual kinase activity, PKCa: 100 micromolar inhibitor concentration, 100 is no change
Source text: as §1

MSK1 = MSK1 (Homo sapiens, UniProt O75582); assay: Kinase profiling MSK1; conditions: for residual kinase activity, MSK1: 100 micromolar inhibitor concentration, 100 is no change
Source text: as §1

SmMLCK = SmMLCK (Homo sapiens, UniProt Q15746); assay: Kinase profiling SmMLCK; conditions: 100 micromolar inhibitor concentration, 100 is no change
CK2 = assay: Kinase profiling CK2; conditions: 100 micromolar inhibitor concentration; 100 is no change
Source text: as §1

DYRK1A = DYRK1A (Homo sapiens, UniProt Q13627); assay: DYRK 1A assay (kinase profiling); conditions: for residual kinase activity, DYRK1A: 100 micromolar inhibitor concentration, 100 is no change
Protocol: Assays are stopped by addition of 5 μl of 0.5 M (3%) orthophosphoric acid and then harvested onto P81 Unifilter plates with a wash buffer of 50 mM orthophosphoric acid.
as §1

NEK6 = NEK6 (Homo sapiens, UniProt Q9HC98); assay: Kinase profiling NEK6; conditions: for residual kinase activity, NEK6: 100 micromolar inhibitor concentration, 100 is no change
Source text: as §1

TTK = biological target: T1, TTK (Homo sapiens, UniProt P33981); assay: Kinase profiling TTK; conditions: for residual kinase activity, TTK: 100 micromolar inhibitor concentration, 100 is no change
T1 sequence (P33981 1-857): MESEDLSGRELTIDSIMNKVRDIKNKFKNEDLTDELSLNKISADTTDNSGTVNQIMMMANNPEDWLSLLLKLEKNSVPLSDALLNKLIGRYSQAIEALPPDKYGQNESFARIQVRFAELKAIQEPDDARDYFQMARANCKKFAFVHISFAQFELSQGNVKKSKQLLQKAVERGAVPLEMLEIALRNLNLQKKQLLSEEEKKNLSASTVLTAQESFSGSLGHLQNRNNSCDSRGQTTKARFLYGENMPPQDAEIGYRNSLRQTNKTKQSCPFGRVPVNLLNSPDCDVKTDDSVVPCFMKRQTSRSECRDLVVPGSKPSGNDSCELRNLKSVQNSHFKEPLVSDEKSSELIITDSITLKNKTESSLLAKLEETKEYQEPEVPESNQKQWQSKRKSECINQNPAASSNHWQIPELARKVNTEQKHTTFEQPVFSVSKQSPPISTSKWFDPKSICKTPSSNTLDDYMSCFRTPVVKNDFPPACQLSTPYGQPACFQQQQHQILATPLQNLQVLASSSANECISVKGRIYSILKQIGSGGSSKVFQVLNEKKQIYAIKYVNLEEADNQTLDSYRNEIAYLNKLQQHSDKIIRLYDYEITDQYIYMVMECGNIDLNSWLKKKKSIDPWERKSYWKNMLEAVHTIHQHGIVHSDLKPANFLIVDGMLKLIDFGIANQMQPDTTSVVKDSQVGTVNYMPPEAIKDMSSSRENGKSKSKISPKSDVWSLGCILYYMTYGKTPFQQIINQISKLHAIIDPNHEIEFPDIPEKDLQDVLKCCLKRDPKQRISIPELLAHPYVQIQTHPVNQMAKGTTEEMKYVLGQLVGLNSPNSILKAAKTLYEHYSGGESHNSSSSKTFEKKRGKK
Source text: as §1

Lck = Lck (Homo sapiens, UniProt P06239); assay: Kinase profiling Lck; conditions: for residual kinase activity, Lck: 100 micromolar inhibitor concentration, 100 is no change
Source text: as §1

JAK2 = JAK2 (Homo sapiens, UniProt O60674); assay: Kinase profiling JAK2; conditions: for residual kinase activity, JAK2: 100 micromolar inhibitor concentration, 100 is no change
Source text: as §1

SYK = SYK (Homo sapiens, UniProt P43405); assay: Kinase profiling SYK; conditions: for residual kinase activity, SYK: 100 micromolar inhibitor concentration, 100 is no change
Source text: as §1

EPH-A2 = EPH-A2 (Homo sapiens, UniProt P29317); assay: Kinase profiling EPH-A2; conditions: for residual kinase activity, EPH-A2: 100 micromolar inhibitor concentration, 100 is no change
Source text: as §1

HER4 = HER4 (Homo sapiens, UniProt Q15303); assay: Kinase profiling HER4; conditions: for residual kinase activity, HER4: 100 micromolar inhibitor concentration, 100 is no change
Source text: as §1

IGF-1R = IGF-1R (Homo sapiens, UniProt P08069); assay: Kinase profiling IGF-1R; conditions: for residual kinase activity, IGF-1R: 100 micromolar inhibitor concentration, 100 is no change
Source text: as §1

Chain of SmMLCK (Q15746 923-1914): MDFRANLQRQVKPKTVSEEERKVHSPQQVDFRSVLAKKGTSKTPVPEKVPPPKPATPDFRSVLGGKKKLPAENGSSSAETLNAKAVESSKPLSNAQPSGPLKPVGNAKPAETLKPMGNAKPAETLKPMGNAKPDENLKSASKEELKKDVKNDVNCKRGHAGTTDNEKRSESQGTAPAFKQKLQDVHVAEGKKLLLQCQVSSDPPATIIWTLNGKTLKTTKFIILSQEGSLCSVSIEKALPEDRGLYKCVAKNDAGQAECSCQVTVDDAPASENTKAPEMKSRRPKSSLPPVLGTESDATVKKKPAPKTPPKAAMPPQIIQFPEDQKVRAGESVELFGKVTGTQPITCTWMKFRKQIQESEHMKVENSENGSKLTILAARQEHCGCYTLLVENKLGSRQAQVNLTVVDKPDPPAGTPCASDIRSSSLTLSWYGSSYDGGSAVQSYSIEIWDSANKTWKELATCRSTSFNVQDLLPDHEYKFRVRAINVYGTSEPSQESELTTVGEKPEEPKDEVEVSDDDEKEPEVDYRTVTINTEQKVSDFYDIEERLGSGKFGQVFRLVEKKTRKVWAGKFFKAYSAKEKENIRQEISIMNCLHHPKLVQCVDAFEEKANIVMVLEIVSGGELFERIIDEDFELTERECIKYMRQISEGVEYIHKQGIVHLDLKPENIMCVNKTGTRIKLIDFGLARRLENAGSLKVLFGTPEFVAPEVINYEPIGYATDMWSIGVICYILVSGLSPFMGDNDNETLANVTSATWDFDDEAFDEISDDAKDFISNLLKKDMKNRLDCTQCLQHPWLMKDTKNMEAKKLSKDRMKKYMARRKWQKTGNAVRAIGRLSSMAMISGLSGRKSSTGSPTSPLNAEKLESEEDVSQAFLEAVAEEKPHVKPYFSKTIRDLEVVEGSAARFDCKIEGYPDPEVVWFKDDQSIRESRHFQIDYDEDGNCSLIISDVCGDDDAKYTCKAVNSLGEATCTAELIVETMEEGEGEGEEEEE
Chain of JAK2 (O60674 whole entry, species assumed): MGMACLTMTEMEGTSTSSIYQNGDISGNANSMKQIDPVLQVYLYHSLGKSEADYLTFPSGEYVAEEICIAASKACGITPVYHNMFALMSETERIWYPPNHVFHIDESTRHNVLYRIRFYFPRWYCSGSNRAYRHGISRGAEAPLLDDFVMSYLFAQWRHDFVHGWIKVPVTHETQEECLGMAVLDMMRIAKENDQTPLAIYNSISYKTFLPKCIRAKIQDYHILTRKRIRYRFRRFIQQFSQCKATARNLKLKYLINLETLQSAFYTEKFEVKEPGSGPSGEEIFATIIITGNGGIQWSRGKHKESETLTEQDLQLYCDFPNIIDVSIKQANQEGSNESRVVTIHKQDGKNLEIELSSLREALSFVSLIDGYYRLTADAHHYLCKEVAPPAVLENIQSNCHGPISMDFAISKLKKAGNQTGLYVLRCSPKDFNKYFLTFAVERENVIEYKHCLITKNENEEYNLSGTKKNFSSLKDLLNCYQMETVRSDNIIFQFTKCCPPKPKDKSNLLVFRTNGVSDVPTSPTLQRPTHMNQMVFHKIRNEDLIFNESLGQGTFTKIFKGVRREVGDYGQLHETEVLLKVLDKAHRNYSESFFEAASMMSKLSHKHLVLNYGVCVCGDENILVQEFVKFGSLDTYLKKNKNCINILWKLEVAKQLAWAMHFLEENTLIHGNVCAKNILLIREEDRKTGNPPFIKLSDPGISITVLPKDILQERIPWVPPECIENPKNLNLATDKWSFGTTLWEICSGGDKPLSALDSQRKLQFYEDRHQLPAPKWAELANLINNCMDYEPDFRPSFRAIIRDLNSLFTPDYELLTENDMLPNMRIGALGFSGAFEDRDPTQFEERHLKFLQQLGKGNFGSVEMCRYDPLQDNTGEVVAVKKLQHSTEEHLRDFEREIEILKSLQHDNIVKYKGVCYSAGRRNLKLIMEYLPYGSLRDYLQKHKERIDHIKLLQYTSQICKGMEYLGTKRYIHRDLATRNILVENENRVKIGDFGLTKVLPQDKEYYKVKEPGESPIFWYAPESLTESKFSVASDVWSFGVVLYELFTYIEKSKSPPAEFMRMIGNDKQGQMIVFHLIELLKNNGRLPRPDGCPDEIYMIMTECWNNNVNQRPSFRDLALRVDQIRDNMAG
Chain of NEK6 (Q9HC98 whole entry, species assumed): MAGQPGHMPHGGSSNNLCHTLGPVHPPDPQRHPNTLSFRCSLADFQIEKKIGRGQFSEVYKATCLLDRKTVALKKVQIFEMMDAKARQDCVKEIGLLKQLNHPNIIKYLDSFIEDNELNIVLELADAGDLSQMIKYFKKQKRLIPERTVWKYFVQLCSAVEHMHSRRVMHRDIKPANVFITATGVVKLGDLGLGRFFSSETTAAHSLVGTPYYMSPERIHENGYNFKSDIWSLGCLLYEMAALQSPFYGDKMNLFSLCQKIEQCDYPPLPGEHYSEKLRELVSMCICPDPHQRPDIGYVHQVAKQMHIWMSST
Chain of HER4 (Q15303 26-1308, species assumed): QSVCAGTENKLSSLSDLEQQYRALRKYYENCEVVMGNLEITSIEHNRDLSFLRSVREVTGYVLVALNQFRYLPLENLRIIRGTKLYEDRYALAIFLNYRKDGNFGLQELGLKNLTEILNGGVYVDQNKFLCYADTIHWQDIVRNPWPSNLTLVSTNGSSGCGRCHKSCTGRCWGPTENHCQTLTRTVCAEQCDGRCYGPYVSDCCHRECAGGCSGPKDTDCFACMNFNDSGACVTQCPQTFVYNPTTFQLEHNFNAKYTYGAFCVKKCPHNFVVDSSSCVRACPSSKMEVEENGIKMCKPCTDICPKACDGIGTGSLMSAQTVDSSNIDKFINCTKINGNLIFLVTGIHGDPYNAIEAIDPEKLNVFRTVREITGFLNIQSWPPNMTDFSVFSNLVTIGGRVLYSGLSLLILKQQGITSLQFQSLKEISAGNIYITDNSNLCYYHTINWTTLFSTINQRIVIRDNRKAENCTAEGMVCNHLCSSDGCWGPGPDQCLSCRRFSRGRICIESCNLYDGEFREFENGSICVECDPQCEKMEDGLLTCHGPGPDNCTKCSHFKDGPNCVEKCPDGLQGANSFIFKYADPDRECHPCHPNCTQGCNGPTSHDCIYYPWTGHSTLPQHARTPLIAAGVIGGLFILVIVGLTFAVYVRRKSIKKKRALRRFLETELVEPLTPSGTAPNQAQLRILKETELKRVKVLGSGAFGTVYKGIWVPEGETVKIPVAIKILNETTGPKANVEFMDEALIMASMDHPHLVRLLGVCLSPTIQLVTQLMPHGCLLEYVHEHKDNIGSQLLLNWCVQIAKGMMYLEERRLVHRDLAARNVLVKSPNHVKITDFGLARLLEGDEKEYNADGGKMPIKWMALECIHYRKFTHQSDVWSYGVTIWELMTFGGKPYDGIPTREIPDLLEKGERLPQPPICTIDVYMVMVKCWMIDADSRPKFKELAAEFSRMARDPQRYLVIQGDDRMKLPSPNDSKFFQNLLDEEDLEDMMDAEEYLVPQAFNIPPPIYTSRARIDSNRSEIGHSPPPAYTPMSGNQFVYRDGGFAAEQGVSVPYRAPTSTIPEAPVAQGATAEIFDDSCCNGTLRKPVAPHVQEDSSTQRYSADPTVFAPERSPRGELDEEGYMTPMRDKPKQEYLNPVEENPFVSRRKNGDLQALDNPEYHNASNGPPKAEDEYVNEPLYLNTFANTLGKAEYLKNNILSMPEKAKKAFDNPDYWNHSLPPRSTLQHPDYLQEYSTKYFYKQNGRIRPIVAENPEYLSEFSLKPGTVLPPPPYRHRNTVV
Chain of Lck (P06239 whole entry, species assumed): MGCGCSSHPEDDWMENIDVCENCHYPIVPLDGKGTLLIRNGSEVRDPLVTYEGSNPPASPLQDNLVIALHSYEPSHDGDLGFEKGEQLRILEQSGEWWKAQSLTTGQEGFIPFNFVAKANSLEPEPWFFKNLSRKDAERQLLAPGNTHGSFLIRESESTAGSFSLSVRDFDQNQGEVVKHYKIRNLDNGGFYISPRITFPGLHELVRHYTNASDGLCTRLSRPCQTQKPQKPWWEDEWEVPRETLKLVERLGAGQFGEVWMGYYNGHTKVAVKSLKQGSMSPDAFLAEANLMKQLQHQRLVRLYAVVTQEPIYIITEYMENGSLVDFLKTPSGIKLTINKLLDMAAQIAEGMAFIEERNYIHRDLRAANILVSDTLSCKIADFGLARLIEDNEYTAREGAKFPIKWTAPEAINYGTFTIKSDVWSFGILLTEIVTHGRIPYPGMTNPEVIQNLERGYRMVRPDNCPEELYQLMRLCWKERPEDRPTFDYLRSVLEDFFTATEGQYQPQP

SMILES	residual kinase activity, RSK1 (RSK1)	residual kinase activity, PKA (PKA)	residual kinase activity, PKCa (PKCa)	residual kinase activity, MSK1 (MSK1)	residual kinase activity, SmMLCK (SmMLCK)	residual kinase activity, CK2 (CK2)	residual kinase activity, DYRK1A (DYRK1A)	residual kinase activity, NEK6 (NEK6)	residual kinase activity, TTK (TTK)	residual kinase activity, Lck (Lck)	residual kinase activity, JAK2 (JAK2)	residual kinase activity, SYK (SYK)	residual kinase activity, EPH-A2 (EPH-A2)	residual kinase activity, HER4 (HER4)	residual kinase activity, IGF-1R (IGF-1R)	further results
O=C(Nc1nc2ccc(F)cc2s1)c1ccccc1 [Compound 03-92]	79	96	96	81	68	90	11	106	47	102	109	117	98	90	88	
CC(=O)Nc1nc2ccc(F)cc2s1 [Compound 03-94]	85	93	98	88	67	91	12	92	37	92	49	96	94	101	92	
COc1ccc2sc(NC(=O)c3ccccc3)nc2c1 [Compound 03-95]	64	83	53	67	48	78	30	86	71	93	86	83	91	81	100	
COc1ccc2nc(NC(=O)c3ccccc3)sc2c1 [Compound 03-98]	74	90	89	90	75	88	6	94	18	93	81	109	95	73	104	
O=C(Nc1nc2ccc(C(F)(F)F)cc2s1)c1ccccc1 [Compound 03-99]	92	96	114	70	89	80	9	94	32	92	87	120	110	85	85	
O=C(Nc1nc2cc(O)ccc2s1)c1ccccc1 [Compound 03-102]	41	93	72	72	15	75	6	112	30	98	47	80	65	45	52	
COC(=O)c1cccc(C(=O)Nc2nc3ccc(C(F)(F)F)cc3s2)c1 [Compound 03-105, Methyl 3-((6-(trifluoromethyl)benzo[d]thiazol-2-yl)carbamoyl)benzoate]						89										remaining activity at 100 µM (RSK1; read-out: residual kinase activity, RSK1): 87%; remaining activity at 100 µM (PKA; read-out: residual kinase activity, PKA): 96%; remaining activity at 100 µM (PKCa; read-out: residual kinase activity, PKCa): 96%; remaining activity at 100 µM (MSK1; read-out: residual kinase activity, MSK1): 84%; remaining activity at 100 µM (SmMLCK; read-out: residual kinase activity, SmMLCK): 63%; remaining activity at 100 µM (DYRK1A; read-out: residual kinase activity, DYRK1A): 2%; remaining activity at 100 µM (NEK6; read-out: residual kinase activity, NEK6): 90%; remaining activity at 100 µM (TTK; read-out: residual kinase activity, TTK): 9%; remaining activity at 100 µM (Lck; read-out: residual kinase activity, Lck): 99%; remaining activity at 100 µM (JAK2; read-out: residual kinase activity, JAK2): 101%; remaining activity at 100 µM (SYK; read-out: residual kinase activity, SYK): 102%; remaining activity at 100 µM (EPH-A2; read-out: residual kinase activity, EPH-A2): 100%; remaining activity at 100 µM (HER4; read-out: residual kinase activity, HER4): 122%; remaining activity at 100 µM (IGF-1R; read-out: residual kinase activity, IGF-1R): 101%
N#Cc1ccc2nc(NC(=O)c3ccccc3)sc2c1 [Compound 03-106]	96	91	100	64	94	12	3	97	42	95	87	93	89	82	131	

— patent US10231954B2, “Neurodegenerative therapies” (LYTIX BIOPHARMA AS, priority 2014, dated 2019)
